Measurements reported in PubChem BioAssay AID2060486 (Molecular Pharmacology Branch, DTP, NCI, 2025).

Test system: IGROV1 complex spheroids (HUVEC, MSC), viability % test/control
Assay: Anticancer human tumor IGROV1 cell line growth inhibition [GQUAD];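 note: spheroids exposed to compounds for 7 days before readout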;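 for viability, T/C: 100% = DMSO vehicle control viability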
Settings: for IC50: curve of first compound; for viability, T/C: stronger effect = lower value
How it was run: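 Viability of tumor cells grown as complex spheroids with endothelial and stromal cells, exposed to drug combinations. Top concentration at or near clinical Cmax (else 10 microM), diluted in half-log increments.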

[1] = second compound 0.0316 µM, first compound 0.0316 µM
[2] = second compound 0.0316 µM, first compound 0.1 µM
[3] = second compound 0.0316 µM, first compound 0.316 µM
[4] = second compound 0.0316 µM, first compound 1 µM
[5] = second compound 0.0316 µM, first compound 3.16 µM
[6] = second compound 0.0316 µM, first compound 10 µM
[7] = second compound 0.1 µM, first compound 0.0316 µM
[8] = second compound 0.1 µM, first compound 0.1 µM
[9] = second compound 0.1 µM, first compound 0.316 µM
[10] = second compound 0.1 µM, first compound 1 µM
[11] = second compound 0.1 µM, first compound 3.16 µM
[12] = second compound 0.1 µM, first compound 10 µM
[13] = second compound 0.316 µM, first compound 0.0316 µM
[14] = second compound 0.316 µM, first compound 0.1 µM
[15] = second compound 0.316 µM, first compound 0.316 µM
[16] = second compound 0.316 µM, first compound 1 µM
[17] = second compound 0.316 µM, first compound 3.16 µM
[18] = second compound 0.316 µM, first compound 10 µM
[19] = second compound 1 µM, first compound 0.0316 µM
[20] = second compound 1 µM, first compound 0.1 µM
[21] = second compound 1 µM, first compound 0.316 µM
[22] = second compound 1 µM, first compound 1 µM
[23] = second compound 1 µM, first compound 3.16 µM
[24] = second compound 1 µM, first compound 10 µM
[25] = second compound 3.16 µM, first compound 0.0316 µM
[26] = second compound 3.16 µM, first compound 0.1 µM
[27] = second compound 3.16 µM, first compound 0.316 µM
[28] = second compound 3.16 µM, first compound 1 µM
[29] = second compound 3.16 µM, first compound 3.16 µM
[30] = second compound 3.16 µM, first compound 10 µM
[31] = second compound 10 µM, first compound 0.0316 µM
[32] = second compound 10 µM, first compound 0.1 µM
[33] = second compound 10 µM, first compound 0.316 µM
[34] = second compound 10 µM, first compound 1 µM
[35] = second compound 10 µM, first compound 3.16 µM
[36] = second compound 10 µM, first compound 10 µM

C=CC(=O)N1CCN(c2nc(=O)n(-c3c(C)ccnc3C(C)C)c3nc(-c4c(O)cccc4F)c(F)cc23)C(C)C1 (stereo unspecified) + CN(C)c1ccc(Nc2c3ccc(NC(=O)CCN4CCCC4)cc3nc3cc(NC(=O)CCN4CCCC4)ccc23)cc1
IC50 (second compound 0.0316 µM): > 10000 nM | IC50 (second compound 0.1 µM): > 10000 nM | IC50 (second compound 0.316 µM): > 10000 nM | IC50 (second compound 1 µM): > 10000 nM | IC50 (second compound 3.16 µM): > 10000 nM | IC50 (second compound 10 µM): 4880 nM | viability, T/C [1]: 99.1% | viability, T/C [2]: 100% | viability, T/C [3]: 106% | viability, T/C [4]: 90.7% | viability, T/C [5]: 104% | viability, T/C [6]: 90.5% | viability, T/C [7]: 99.7% | viability, T/C [8]: 90.3% | viability, T/C [9]: 96.3% | viability, T/C [10]: 88.5% | viability, T/C [11]: 111% | viability, T/C [12]: 104% | viability, T/C [13]: 91.5% | viability, T/C [14]: 75.2% | viability, T/C [15]: 88.4% | viability, T/C [16]: 83.3% | viability, T/C [17]: 111% | viability, T/C [18]: 83.3% | viability, T/C [19]: 90.1% | viability, T/C [20]: 70.3% | viability, T/C [21]: 93.7% | viability, T/C [22]: 108% | viability, T/C [23]: 106% | viability, T/C [24]: 95.1% | viability, T/C [25]: 86% | viability, T/C [26]: 86.4% | viability, T/C [27]: 101% | viability, T/C [28]: 99.5% | viability, T/C [29]: 99.5% | viability, T/C [30]: 77.8% | viability, T/C [31]: 62.6% | viability, T/C [32]: 58.7% | viability, T/C [33]: 67.2% | viability, T/C [34]: 71.8% | viability, T/C [35]: 64.1% | viability, T/C [36]: 26.3%

COc1cc(C2c3cc4c(cc3C(OC3OC5COC(C)OC5C(O)C3O)C3COC(=O)C23)OCO4)cc(OC)c1O (stereo unspecified) + CN(C)c1ccc(Nc2c3ccc(NC(=O)CCN4CCCC4)cc3nc3cc(NC(=O)CCN4CCCC4)ccc23)cc1
IC50 (second compound 0.0316 µM): 138 nM | IC50 (second compound 0.1 µM): 109 nM | IC50 (second compound 0.316 µM): 93.5 nM | IC50 (second compound 1 µM): 84.1 nM | IC50 (second compound 3.16 µM): 98.5 nM | IC50 (second compound 10 µM): < 31.6 nM | viability, T/C [1]: 88.3% | viability, T/C [2]: 59.8% | viability, T/C [3]: 25.1% | viability, T/C [4]: 13.8% | viability, T/C [5]: 9.71% | viability, T/C [6]: 6.8% | viability, T/C [7]: 90.7% | viability, T/C [8]: 51.9% | viability, T/C [9]: 24.9% | viability, T/C [10]: 11.9% | viability, T/C [11]: 9.44% | viability, T/C [12]: 6.65% | viability, T/C [13]: 88% | viability, T/C [14]: 47.6% | viability, T/C [15]: 23.2% | viability, T/C [16]: 11.3% | viability, T/C [17]: 9.49% | viability, T/C [18]: 5.93% | viability, T/C [19]: 83.4% | viability, T/C [20]: 44.5% | viability, T/C [21]: 18.1% | viability, T/C [22]: 12.9% | viability, T/C [23]: 9.59% | viability, T/C [24]: 5.75% | viability, T/C [25]: 85.2% | viability, T/C [26]: 49.4% | viability, T/C [27]: 24.6% | viability, T/C [28]: 11% | viability, T/C [29]: 9.22% | viability, T/C [30]: 5.74% | viability, T/C [31]: 50.3% | viability, T/C [32]: 22.1% | viability, T/C [33]: 13.1% | viability, T/C [34]: 7.21% | viability, T/C [35]: 6.58% | viability, T/C [36]: 4.87%

COc1cccc2c1C(=O)c1c(O)c3c(c(O)c1C2=O)CC(O)(C(=O)CO)CC3OC1CC(N)C(O)C(C)O1 (stereo unspecified) + CN(C)c1ccc(Nc2c3ccc(NC(=O)CCN4CCCC4)cc3nc3cc(NC(=O)CCN4CCCC4)ccc23)cc1
IC50 (second compound 0.0316 µM): 49.4 nM | IC50 (second compound 0.1 µM): 49 nM | IC50 (second compound 0.316 µM): 39.9 nM | IC50 (second compound 1 µM): 32.4 nM | IC50 (second compound 3.16 µM): 41.3 nM | IC50 (second compound 10 µM): < 31.6 nM | viability, T/C [1]: 67.7% | viability, T/C [2]: 21.5% | viability, T/C [3]: 9.86% | viability, T/C [4]: 3.36% | viability, T/C [5]: 0.13% | viability, T/C [6]: 1.04% | viability, T/C [7]: 67.9% | viability, T/C [8]: 20.4% | viability, T/C [9]: 9.01% | viability, T/C [10]: 3.31% | viability, T/C [11]: 0.07% | viability, T/C [12]: 1.06% | viability, T/C [13]: 57.2% | viability, T/C [14]: 21.7% | viability, T/C [15]: 9.64% | viability, T/C [16]: 3.48% | viability, T/C [17]: 0.07% | viability, T/C [18]: 1.01% | viability, T/C [19]: 50.5% | viability, T/C [20]: 25.7% | viability, T/C [21]: 7.36% | viability, T/C [22]: 2.77% | viability, T/C [23]: 0.08% | viability, T/C [24]: 0.98% | viability, T/C [25]: 59.6% | viability, T/C [26]: 18.7% | viability, T/C [27]: 8.4% | viability, T/C [28]: 3.44% | viability, T/C [29]: 0.13% | viability, T/C [30]: 0.94% | viability, T/C [31]: 33.5% | viability, T/C [32]: 15.6% | viability, T/C [33]: 5.82% | viability, T/C [34]: 3.29% | viability, T/C [35]: 0.17% | viability, T/C [36]: 1.15%
